Assay results published in ChEMBL document CHEMBL1799930, “Novel nanomolar imidazo[4,5-b]pyridines as selective nitric oxide synthase (iNOS) inhibitors: SAR and structural insights” (Bioorg Med Chem Lett, 2011).
Calls of active or inactive are those of the source. The rule behind the calls is not given here.

Legend:
[1] = target: Nitric oxide synthase, inducible (Homo sapiens, UniProt P35228); assay: Inhibition of human iNOS assessed as inhibition of [3H]L-arginine to [3H]L-citrulline conversion by scintillation counting
[2] = target: Nitric oxide synthase 1 (Homo sapiens, UniProt P29475); assay: Inhibition of human nNOS assessed as inhibition of [3H]L-arginine to [3H]L-citrulline conversion by scintillation counting
[3] = target: T1, Nitric oxide synthase 3 (Homo sapiens, UniProt P29474); assay: Inhibition of human eNOS assessed as inhibition of [3H]L-arginine to [3H]L-citrulline conversion by scintillation counting
T1 sequence (P29474 whole entry): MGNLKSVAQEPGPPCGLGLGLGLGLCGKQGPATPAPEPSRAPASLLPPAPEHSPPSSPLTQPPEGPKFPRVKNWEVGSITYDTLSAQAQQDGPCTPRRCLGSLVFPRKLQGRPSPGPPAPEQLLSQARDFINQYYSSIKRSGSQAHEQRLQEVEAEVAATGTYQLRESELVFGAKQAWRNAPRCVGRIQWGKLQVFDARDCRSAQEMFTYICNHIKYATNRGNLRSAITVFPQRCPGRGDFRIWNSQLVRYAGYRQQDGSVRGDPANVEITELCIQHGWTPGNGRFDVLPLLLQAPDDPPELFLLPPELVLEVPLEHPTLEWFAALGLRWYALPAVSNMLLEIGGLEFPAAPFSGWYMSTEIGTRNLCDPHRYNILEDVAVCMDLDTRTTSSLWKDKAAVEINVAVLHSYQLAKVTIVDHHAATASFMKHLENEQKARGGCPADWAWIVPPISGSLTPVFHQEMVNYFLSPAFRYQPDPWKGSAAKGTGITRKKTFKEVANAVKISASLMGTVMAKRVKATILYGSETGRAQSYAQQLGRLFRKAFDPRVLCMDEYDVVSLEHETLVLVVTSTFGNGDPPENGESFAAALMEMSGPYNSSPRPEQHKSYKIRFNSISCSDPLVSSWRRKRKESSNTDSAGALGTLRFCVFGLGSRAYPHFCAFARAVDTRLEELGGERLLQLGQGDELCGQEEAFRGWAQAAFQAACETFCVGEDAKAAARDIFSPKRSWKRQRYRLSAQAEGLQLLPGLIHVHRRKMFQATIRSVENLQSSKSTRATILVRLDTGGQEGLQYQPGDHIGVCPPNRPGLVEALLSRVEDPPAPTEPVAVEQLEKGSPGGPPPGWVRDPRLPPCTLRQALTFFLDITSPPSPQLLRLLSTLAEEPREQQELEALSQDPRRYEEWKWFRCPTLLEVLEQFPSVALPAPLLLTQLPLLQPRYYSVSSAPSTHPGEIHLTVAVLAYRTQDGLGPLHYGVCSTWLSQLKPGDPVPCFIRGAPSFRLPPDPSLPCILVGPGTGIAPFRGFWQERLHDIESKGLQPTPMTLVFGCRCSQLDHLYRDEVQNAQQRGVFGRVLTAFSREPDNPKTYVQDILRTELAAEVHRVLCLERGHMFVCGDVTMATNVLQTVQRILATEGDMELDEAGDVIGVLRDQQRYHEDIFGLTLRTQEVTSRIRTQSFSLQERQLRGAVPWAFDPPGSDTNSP

[4] = target: T2, Nitric oxide synthase, inducible (Mus musculus) (UniProt P29477); assay: Binding affinity to mouse iNOSox L-arginine binding site by X-ray crystallography
T2 sequence (whole entry): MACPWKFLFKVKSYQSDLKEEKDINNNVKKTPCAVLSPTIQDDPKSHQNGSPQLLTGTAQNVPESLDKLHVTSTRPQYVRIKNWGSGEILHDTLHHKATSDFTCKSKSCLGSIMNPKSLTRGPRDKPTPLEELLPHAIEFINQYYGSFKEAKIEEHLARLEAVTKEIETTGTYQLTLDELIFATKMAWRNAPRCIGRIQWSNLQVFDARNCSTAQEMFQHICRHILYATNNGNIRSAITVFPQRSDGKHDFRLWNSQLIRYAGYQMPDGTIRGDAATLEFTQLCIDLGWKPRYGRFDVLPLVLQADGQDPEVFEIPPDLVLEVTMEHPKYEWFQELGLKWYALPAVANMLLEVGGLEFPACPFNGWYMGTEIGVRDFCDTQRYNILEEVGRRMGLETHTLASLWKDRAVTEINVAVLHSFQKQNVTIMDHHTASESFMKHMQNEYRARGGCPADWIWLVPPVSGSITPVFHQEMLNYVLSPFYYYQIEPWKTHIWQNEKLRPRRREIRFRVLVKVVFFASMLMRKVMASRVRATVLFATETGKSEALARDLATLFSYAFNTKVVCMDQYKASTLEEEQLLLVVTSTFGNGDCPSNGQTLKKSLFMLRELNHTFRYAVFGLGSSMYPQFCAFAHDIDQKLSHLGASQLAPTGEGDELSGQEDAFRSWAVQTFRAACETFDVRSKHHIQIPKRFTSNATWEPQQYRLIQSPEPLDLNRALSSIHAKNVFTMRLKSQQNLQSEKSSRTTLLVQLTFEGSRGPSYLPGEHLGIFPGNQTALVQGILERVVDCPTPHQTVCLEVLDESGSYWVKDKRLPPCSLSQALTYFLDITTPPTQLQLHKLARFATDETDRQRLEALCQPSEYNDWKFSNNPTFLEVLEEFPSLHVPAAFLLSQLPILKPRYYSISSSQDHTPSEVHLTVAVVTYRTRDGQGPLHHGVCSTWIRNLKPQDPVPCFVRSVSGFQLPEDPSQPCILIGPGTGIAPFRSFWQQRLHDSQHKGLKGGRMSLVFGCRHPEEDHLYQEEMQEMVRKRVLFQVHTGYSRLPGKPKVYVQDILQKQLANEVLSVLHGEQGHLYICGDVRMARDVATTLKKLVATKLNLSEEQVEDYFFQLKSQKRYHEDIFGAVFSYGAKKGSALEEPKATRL

[5] = Inhibition of CYP; format: ADME
[6] = Clearance in rat; format: ADME, organism-based; conditions: in vivo
[7] = Absolute oral bioavailability in rat; format: ADME, organism-based; conditions: in vivo
[8] = target: Cytochrome P450 2C9 (Homo sapiens, UniProt P11712); assay: Inhibition of CYP2C9; format: ADME
[9] = Cmax in rat; format: ADME, organism-based; conditions: in vivo

Sequence of Nitric oxide synthase, inducible (P35228 whole entry): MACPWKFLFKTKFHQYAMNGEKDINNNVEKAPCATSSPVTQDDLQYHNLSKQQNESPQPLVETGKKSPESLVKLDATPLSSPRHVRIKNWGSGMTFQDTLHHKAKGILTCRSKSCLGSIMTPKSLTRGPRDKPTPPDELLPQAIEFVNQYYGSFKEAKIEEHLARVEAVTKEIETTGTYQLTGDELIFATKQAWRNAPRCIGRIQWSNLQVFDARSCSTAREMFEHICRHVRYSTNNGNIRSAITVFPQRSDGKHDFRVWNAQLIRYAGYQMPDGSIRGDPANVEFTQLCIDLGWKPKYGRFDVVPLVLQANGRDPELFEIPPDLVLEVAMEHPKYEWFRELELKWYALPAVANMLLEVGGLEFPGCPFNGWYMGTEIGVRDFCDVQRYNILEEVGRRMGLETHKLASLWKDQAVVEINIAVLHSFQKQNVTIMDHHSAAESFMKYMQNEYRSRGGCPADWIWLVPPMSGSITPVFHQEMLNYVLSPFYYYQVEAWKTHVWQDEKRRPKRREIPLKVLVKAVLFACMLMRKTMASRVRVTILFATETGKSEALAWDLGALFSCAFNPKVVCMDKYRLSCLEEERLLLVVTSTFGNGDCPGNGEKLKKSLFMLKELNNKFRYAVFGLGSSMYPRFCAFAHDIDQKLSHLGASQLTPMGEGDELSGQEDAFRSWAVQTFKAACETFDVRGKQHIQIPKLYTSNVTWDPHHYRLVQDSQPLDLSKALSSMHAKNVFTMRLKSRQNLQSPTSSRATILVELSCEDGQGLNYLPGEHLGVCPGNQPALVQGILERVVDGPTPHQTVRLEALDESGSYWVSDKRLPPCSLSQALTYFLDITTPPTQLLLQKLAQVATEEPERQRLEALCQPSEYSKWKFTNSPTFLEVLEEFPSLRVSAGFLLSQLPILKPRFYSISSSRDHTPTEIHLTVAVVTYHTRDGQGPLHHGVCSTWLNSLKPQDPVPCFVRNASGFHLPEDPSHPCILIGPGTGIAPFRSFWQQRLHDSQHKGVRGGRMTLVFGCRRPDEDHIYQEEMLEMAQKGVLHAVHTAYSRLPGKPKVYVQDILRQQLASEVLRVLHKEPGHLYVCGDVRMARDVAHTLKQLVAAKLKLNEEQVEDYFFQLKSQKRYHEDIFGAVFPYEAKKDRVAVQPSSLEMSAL
Sequence of Nitric oxide synthase 1 (P29475 whole entry): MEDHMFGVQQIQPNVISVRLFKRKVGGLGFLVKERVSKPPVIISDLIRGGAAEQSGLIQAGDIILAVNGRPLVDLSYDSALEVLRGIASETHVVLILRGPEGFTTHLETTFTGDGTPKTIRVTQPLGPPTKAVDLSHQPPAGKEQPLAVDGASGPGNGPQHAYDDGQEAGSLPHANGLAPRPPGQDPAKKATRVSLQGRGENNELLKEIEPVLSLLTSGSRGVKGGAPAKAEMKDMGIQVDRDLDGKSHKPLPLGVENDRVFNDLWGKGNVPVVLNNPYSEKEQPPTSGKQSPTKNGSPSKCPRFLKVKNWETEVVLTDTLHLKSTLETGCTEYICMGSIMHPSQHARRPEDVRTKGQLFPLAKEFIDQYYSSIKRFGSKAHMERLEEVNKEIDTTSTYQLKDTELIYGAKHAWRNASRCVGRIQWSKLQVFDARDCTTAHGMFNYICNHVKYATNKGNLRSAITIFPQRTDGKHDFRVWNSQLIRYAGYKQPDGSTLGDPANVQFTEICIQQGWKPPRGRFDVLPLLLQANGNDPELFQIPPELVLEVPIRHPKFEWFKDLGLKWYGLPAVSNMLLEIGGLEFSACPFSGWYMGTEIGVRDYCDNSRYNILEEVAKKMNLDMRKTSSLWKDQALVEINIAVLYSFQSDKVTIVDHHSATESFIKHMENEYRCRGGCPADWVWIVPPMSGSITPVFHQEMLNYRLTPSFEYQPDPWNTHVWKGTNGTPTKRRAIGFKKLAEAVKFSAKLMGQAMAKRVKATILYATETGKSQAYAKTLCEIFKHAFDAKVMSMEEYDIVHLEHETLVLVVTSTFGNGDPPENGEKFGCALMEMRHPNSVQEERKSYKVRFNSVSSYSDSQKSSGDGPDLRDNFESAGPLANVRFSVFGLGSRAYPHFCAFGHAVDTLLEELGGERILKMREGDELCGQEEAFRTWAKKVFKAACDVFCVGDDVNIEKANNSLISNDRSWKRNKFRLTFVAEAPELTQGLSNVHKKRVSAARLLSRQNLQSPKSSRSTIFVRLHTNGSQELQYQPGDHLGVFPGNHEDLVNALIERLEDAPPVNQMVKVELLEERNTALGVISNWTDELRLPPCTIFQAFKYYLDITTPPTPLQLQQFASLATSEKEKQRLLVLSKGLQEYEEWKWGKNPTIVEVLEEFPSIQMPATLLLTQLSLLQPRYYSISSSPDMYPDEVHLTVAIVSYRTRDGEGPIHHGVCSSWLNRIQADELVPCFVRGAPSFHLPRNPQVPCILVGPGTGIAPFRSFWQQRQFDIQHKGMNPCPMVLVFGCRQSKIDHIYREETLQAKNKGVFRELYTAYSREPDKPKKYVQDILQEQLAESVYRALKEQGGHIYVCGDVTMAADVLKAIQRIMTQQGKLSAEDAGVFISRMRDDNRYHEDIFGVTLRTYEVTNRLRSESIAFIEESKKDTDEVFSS
Sequence of Cytochrome P450 2C9 (P11712 whole entry): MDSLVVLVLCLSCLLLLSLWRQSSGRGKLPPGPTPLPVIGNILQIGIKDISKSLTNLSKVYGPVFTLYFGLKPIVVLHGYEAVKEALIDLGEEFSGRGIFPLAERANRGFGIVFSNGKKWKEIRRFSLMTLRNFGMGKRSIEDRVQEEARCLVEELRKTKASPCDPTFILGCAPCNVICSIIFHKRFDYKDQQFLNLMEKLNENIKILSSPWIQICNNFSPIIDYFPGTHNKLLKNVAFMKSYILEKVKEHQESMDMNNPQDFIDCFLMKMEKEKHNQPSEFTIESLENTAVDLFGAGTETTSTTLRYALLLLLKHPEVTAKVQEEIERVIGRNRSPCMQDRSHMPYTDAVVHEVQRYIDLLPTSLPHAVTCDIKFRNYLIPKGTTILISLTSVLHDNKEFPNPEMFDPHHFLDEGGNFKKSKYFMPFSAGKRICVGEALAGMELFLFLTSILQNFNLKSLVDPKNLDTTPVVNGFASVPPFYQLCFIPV

| SMILES | IC50 [1] | IC50 [2] | IC50 [3] | also measured |
| --- | --- | --- | --- | --- |
| CC(=N)NCCCC[C@H](N)C(=O)Nc1nnn[nH]1 | > 100 µM | > 100 µM | > 100 µM | – |
| COc1ccnc(CSC)c1OC | > 100 µM | > 100 µM | > 100 µM | – |
| COc1ccnc(CSc2nc3cccnc3[nH]2)c1 | 0.115 µM | 3.39 µM | 53.7 µM | – |
| CC(=N)NCCCC[C@H](N)C(=O)O [L-NIL] | 4.68 µM | – | > 100 µM | – |
| COc1ccnc(CCc2nc3cccnc3[nH]2)c1 | – | – | – | Activity [4]: Active; pIC50 [5]: < 4 |
| COc1ccnc(CCc2nc3cc(-c4ccccc4)cnc3[nH]2)c1 | – | 1.2 µM | 18.2 µM | – |
| COc1ccnc(CCc2nc3ncccc3[nH]2)c1 | – | 13.8 µM | 112 µM | clearance [6]: 36.8 mL/min/kg; bioavailability [7]: 48%; IC50 [8]: 3.16 µM; Cmax [9]: 2240 ng/mL |
| COc1ccnc(CCc2nc3c(OCCc4ccccc4)ccnc3[nH]2)c1 | 0.724 µM | 13.8 µM | 66.1 µM | – |
| CCCCc1cnc2[nH]c(CCc3cc(OC)ccn3)nc2c1 | 0.055 µM | 1.91 µM | 87.1 µM | – |
| COc1ccnc(NC2CCN(C(=O)c3ccc(C#N)nc3)CC2)c1 | 0.0708 µM | 6.61 µM | > 100 µM | – |
| COc1ccnc(CSC)c1 | 0.155 µM | 0.447 µM | 1.07 µM | – |
| COCCOc1ccnc2[nH]c(CCc3cc(OC)ccn3)nc12 | 0.513 µM | 123 µM | 204 µM | – |
| COc1ccnc(CSc2nc3ccncc3[nH]2)c1 | 49 µM | > 100 µM | > 100 µM | – |
| COc1ccnc(CCc2nc3c(C)ccnc3[nH]2)c1 | 0.145 µM | 18.6 µM | 45.7 µM | – |
| COc1ccnc(CCc2nc3c(C)cc(C)nc3[nH]2)c1 | 2.29 µM | 12.6 µM | > 100 µM | – |
| COc1ccnc(CCc2nc3ccc(OC)nc3[nH]2)c1 | 0.38 µM | 26.3 µM | 100 µM | – |
| C[C@H]1CC(=N)N[C@@H]2[C@H](Cl)[C@@H]21 | – | – | – | Ki [1]: 0.00186 µM; Ki [3]: 0.0186 µM |
| COc1cnc(CSC)cc1OC | > 100 µM | > 100 µM | > 100 µM | – |
| COc1ccnc(CCc2nc3c(OC)ccnc3[nH]2)c1 | 0.776 µM | 58.9 µM | 204 µM | – |
| COc1ccnc(CSc2nc3ccccc3[nH]2)c1 | 10.7 µM | 26.9 µM | 26.3 µM | – |
| COc1ccnc(CCc2nc3cc(Br)cnc3[nH]2)c1 | 0.186 µM | 8.32 µM | 87.1 µM | – |
